Where a name gives a salt, the structure may show the parent alone.
Legend:
[1] = tested on: diarrhea model of irritable bowel syndrome induced by restraint stress in rats; experiment: Diarrhea of irritable bowel syndrome induced by restraint stress in rat; format: in vivo; conditions: for Number of fecal pellets excreted in 1 h / Time for excreting glass ball: 7 days, restraint stress rats; for number of fecal pellets excreted (result in words): high-, mid- and low-dose groups, compared with model control group
From the text: The restraint stress stimulus method was used to induce abnormal defecation in rats, thereby leading to increase of colon smooth muscle movement and accelerating intestinal transport.
The animals were randomly divided into 10 groups as follows: normal control group; model control group (normal saline); high-, mid- and low-dose groups of test drugs (albiflorin and paeoniflorin); and positive control groups (loperamide hydrochloride (Imodium™) and trimebutine maleate (Yuanshengliwei™)). Gavage administration was performed on each group once a day, for 7 consecutive days.
The rats were deprived of food for 24 hours before the test. Half an hour after the last administration, the rats were anesthetized with ethyl ether. After the rat fainted away, its front shoulder, front upper limbs and chest were bound with scotch tape to prevent the front upper limbs from scratching its face, but the movement of the front upper limbs was not limited. A glass ball with a diameter of 3 mm was placed into the rectum 3 cm away from anus. The rats were moved rapidly into cages which were padded with clean filter paper. Timing started when the rat woke up, and the binding time was one hour. The number of fecal pellets excreted by the rat in one hour and the time for excreting glass ball were recorded. Statistical analysis of data was performed using t-test for intergroup comparison.

[2] = tested on: sleep time of mice induced by threshold dose of pentobarbital sodium; experiment: Sleep induced by pentobarbital sodium in mice; format: in vivo; conditions: for Sleep time: 60 min before pentobarbital sodium 50 mg/kg i.p., mice; for sleep time of mice induced by threshold dose of pentobarbital sodium (result in words): compared with normal saline group
Method: Mice with a body weight of 18-22 g, male and female, were selected. Mice with a single-sex were used in each test. The mice were randomly divided into groups as follows: albiflorin group, diazepam group (positive control group) and control group (normal saline). There were 10 mice in each group. 60 minutes after the gavage administration, threshold dose of pentobarbital sodium (50 mg/kg) was injected intraperitoneally. The disappearance of righting reflex was recorded as time to fall asleep, and the period from the righting reflex being disappeared until the righting reflex being recovered was recorded as sleep duration time. Compared with the control group, the significance was determined by time t test.

[3] = tested on: chronic unpredictable stress (CUS) model in rats; experiment: Chronic stress depression model in rats: sucrose aqueous solution-drinking test; conditions: for Sugar aqueous solution preference: 38 days, CUS rats, Means±SEM; for sugar aqueous solution preference of rats (result in words): compared with the model group
[4] = tested on: mice in light-dark shuttle box; experiment: Light-dark shuttle box test in mice (anti-anxiety test); format: in vivo; conditions: for number of times of returning from the dark box back to the light box (result in words): albiflorin high-, mid- and low-dose groups, diazepam group, compared with normal control group; for Number of times of returning from dark box back to light box: 7 days, mice
Method: Mice were randomly divided into 5 groups, i.e. high-dose group of albiflorin (14 mg/kg/d), mid-dose group of albiflorin (7 mg/kg/d), low-dose group of albiflorin (3.5 mg/kg/d), diazepam group (2.5 mg/kg/d), and normal control group. Gavage administration was performed once a day, for 7 consecutive days. During the administration, animals had free access to food and water. The test was carried out 1 hour after the administration on Day 8.
Within the light-dark shuttle box (44 cm×21 cm×21 cm), the dark box accounts for one third thereof, with a cover on the top; and the light box accounts for two thirds thereof, with illumination brightness; and there is a hole between the two boxes for animal to pass through. During the test, mice were placed in the center of the light box, back to the dark box, and then observed. The number of times of entering into the dark box followed by returning to the light box in mice was counted, which was used as an index for the evaluation of anti-anxiety effect of a drug.
8.1.5 Statistical Analysis The data were expressed as X±SD, and the experimental results were analyzed by one-way ANOVA, using SPSS 11.5 statistical software.

[5] = tested on: small intestine spasm models induced by Neostigmine in mice; experiment: Abdominal pain of irritable bowel syndrome in mice (Neostigmine small intestine spasm, carbon powder propulsion); format: in vivo; conditions: for propulsive distance and propulsive rate of carbon powder suspension in mice intestine tract stimulated by Neostigmine (result in words): high-, mid- and low-dose groups, compared with pathology modeling control group; for Propulsive distance / Propulsive rate: 7 days, Neostigmine mice, carbon powder
Method: All the animals were deprived of food for 12 hours before the test. […] After 15 minutes, gavage administration of carbon powder paste was performed on all groups (0.2 ml/10 g body weight, each dosage contains 0.05 g of carbon powder and 0.02 g of carboxymethyl cellulose). The animals were killed 20 minutes later. The propulsive length of carbon powder in small intestine and the total length of small intestine were measured respectively, and then the propulsive rate of carbon powder was calculated. Statistical analysis of data was performed using t-test for intergroup comparison.
The propulsive distance: to measure the propulsive length of carbon powder in small intestine.
Propulsive rate (%)=(propulsive length/total length of small intestine)×100%.

[6] = tested on: chronic unpredictable stress (CUS) model in rats; experiment: Chronic stress depression model in rats: open field test; conditions: for Number of times of horizontal movement in open field / Number of times of vertical movement in open field: CUS rats, 5 min, Means±SEM; for number of times of horizontal movement of rats in open field (result in words) / number of times of vertical movement of rats in open field (result in words): compared with the model group

| Molecule | number of fecal pellets excreted (result in words) [1] | Number of fecal pellets excreted in 1 h ([1]; high-dose, 9.8 mg/kg/d gavage) | Time for excreting glass ball ([1]; high-dose, 9.8 mg/kg/d gavage) | Number of fecal pellets excreted in 1 h ([1]; low-dose, 2.45 mg/kg/d gavage) | Time for excreting glass ball ([1]; low-dose, 2.45 mg/kg/d gavage) | Number of fecal pellets excreted in 1 h ([1]; mid-dose, 4.9 mg/kg/d gavage) | Time for excreting glass ball ([1]; mid-dose, 4.9 mg/kg/d gavage) | sleep time of mice induced by threshold dose of pentobarbital sodium (result in words) [2] | number of times of returning from the dark box back to the light box (result in words) [4] | propulsive distance and propulsive rate of carbon powder suspension in mice intestine tract stimulated by Neostigmine (result in words) [5] | Propulsive distance ([5]; high-dose, 14 mg/kg/d gavage) | Propulsive rate ([5]; high-dose, 14 mg/kg/d gavage) | Propulsive distance ([5]; low-dose, 3.5 mg/kg/d gavage) | Propulsive rate ([5]; low-dose, 3.5 mg/kg/d gavage) | Propulsive distance ([5]; mid-dose, 7 mg/kg/d gavage) | Propulsive rate ([5]; mid-dose, 7 mg/kg/d gavage) | other results |
| --- | --- | --- | --- | --- | --- | --- | --- | --- | --- | --- | --- | --- | --- | --- | --- | --- | --- |
| trimebutine maleate | – | – | – | – | – | – | – | – | – | – | – | – | – | – | – | – | Number of fecal pellets excreted in 1 h ([1]; 6.25 mg/kg/d gavage): 3.70 ± 2.26; Time for excreting glass ball ([1]; 6.25 mg/kg/d gavage): 17.80 ± 21.88 min |
| C[C@]12C[C@@H](O)[C@@H]3C[C@@]1(O[C@@H]1O[C@H](CO)[C@@H](O)[C@H](O)[C@H]1O)[C@@]3(COC(=O)c1ccccc1)C(=O)O2 [Albiflorin] | decreased obviously | 2.50 ± 1.27 | 10.60 ± 17.58 min | 2.60 ± 1.84 | 19.90 ± 17.69 min | 1.80 ± 1.48 | 12.00 ± 17.53 min | obviously prolong | significantly increase | decreased obviously | 22.80 ± 4.78 cm | 57.47 ± 10.67 % | 22.10 ± 3.90 cm | 57.05 ± 4.69 % | 20.80 ± 4.64 cm | 54.53 ± 9.39 % | Sleep time ([2]; 7 mg/kg gavage): 90.2 ± 15.1 min; Sleep time ([2]; 14 mg/kg gavage): 98.8 ± 12.4 min; Sugar aqueous solution preference ([3]; 3.5 mg/kg gavage once a day): 60.04 ± 10.86%; sugar aqueous solution preference of rats (result in words) ([3]; 3.5 mg/kg): did not obviously increase; sugar aqueous solution preference of rats (result in words) ([3]; 7.0 mg/kg and 14.0 mg/kg): obviously increased; Sugar aqueous solution preference ([3]; 7.0 mg/kg gavage once a day): 76.19 ± 5.35 %; Sugar aqueous solution preference ([3]; 14.0 mg/kg gavage once a day): 78.12 ± 4.04 %; Number of times of returning from dark box back to light box ([4]; high-dose, 14 mg/kg/d gavage): 13.9 ± 3.23; Number of times of returning from dark box back to light box ([4]; low-dose, 3.5 mg/kg/d gavage): 10.6 ± 3.42; Number of times of returning from dark box back to light box ([4]; mid-dose, 7 mg/kg/d gavage): 12.1 ± 3.51; Number of times of horizontal movement in open field ([6]; 3.5 mg/kg gavage once a day): 95.40 ± 9.23; Number of times of vertical movement in open field ([6]; 3.5 mg/kg gavage once a day): 20.50 ± 1.81; number of times of horizontal movement of rats in open field (result in words) ([6]; 3.5 mg/kg): obviously increased; number of times of horizontal movement of rats in open field (result in words) ([6]; 7.0 mg/kg and 14.0 mg/kg): can not obviously increase; Number of times of horizontal movement in open field ([6]; 7.0 mg/kg gavage once a day): 98.20 ± 8.61; Number of times of vertical movement in open field ([6]; 7.0 mg/kg gavage once a day): 21.10 ± 2.17; Number of times of horizontal movement in open field ([6]; 14.0 mg/kg gavage once a day): 104.10 ± 11.11; Number of times of vertical movement in open field ([6]; 14.0 mg/kg gavage once a day): 22.10 ± 2.66; number of times of vertical movement of rats in open field (result in words) ([6]; 3.5-14.0 mg/kg): obviously increased |
| CN1C(=O)CN=C(c2ccccc2)c2cc(Cl)ccc21 [Diazepam, diazepam, reference compound] | – | – | – | – | – | – | – | obviously prolong | significantly increase | – | – | – | – | – | – | – | Sleep time ([2]; 0.5 mg/kg gavage): 96. ± 14.6 min; Sleep time ([2]; 1 mg/kg gavage): 102.0 ± 16.2 min; Number of times of returning from dark box back to light box ([4]; 2.5 mg/kg/d gavage): 13.6 ± 3.35 |
| CNCCC(Oc1ccc(C(F)(F)F)cc1)c1ccccc1 (stereo not shown) [Flx, Fluoxetine, reference compound] | – | – | – | – | – | – | – | – | – | – | – | – | – | – | – | – | Sugar aqueous solution preference ([3]; 10 mg/kg gavage once a day): 70.63 ± 6.86 %; sugar aqueous solution preference of rats (result in words) ([3]; 10 mg/kg long-term gavage): obviously increased; Number of times of horizontal movement in open field ([6]; 10 mg/kg gavage once a day): 90.60 ± 7.72; Number of times of vertical movement in open field ([6]; 10 mg/kg gavage once a day): 20.80 ± 1.93; number of times of horizontal movement of rats in open field (result in words) ([6]; 10 mg/kg long-term gavage): obviously increased; number of times of vertical movement of rats in open field (result in words) ([6]; 10 mg/kg long-term gavage): obviously increased |
| CN(C)C(=O)C(CCN1CCC(O)(c2ccc(Cl)cc2)CC1)(c1ccccc1)c1ccccc1 [Loperamide hydrochloride, loperamide hydrochloride] | – | – | – | – | – | – | – | – | – | – | – | – | – | – | – | – | Number of fecal pellets excreted in 1 h ([1]; 0.17 mg/kg/d gavage): 1.40 ± 0.97; Time for excreting glass ball ([1]; 0.17 mg/kg/d gavage): 26.00 ± 28.30 min |
| C[C@@]12C[C@@]3(O)O[C@@H](O1)[C@]1(COC(=O)c4ccccc4)[C@H]3C[C@@]12O[C@@H]1O[C@H](CO)[C@@H](O)[C@H](O)[C@H]1O [Paeoniflorin, paeoniflorin, reference compound] | only a trend to decrease | 3.71 ± 2.02 | 10.70 ± 16.06 min | 4.10 ± 1.81 | 10.64 ± 15.01 min | 3.96 ± 1.36 | 10.50 ± 14.03 min | – | – | decreased only in high-dose group | 28.80 ± 3.79 cm | 65.64 ± 8.80% | 31.80 ± 3.79 cm | 72.64 ± 4.69% | 31.00 ± 1.93 cm | 71.92 ± 7.51% | – |

Source: patent US10350230B2, “Use of albiflorin or pharmaceutically acceptable salt for prevention and/or treatment of irritable bowel syndrome” (priority 2015, dated 2019)
